{
  "source": "patent US20210156844A1",
  "about": "“TMEM16A Modulation for Diagnostic or Therapeutic Use in Pulmonary Hypertension (PH)” (Bayer Aktiengesellschaft, priority 2017, published 2021)",
  "key": {"PASMC": {"system": "PASMC", "assay": "Membrane potential (Em) measurement, current clamp, primary PASMC", "assay_type": "cell-based, human", "conditions": "BBR 30 μM, T16Ainh-A01 10 μM", "procedure": "PASMC were grown on glass coverslips and serum starved for 24-48 hours. The coverslips were perfused with a bath solution composed of (in mM) NaCl 141, KCl 4.7, HEPES 10, glucose 10, CaCl2 1.8, MgCl2 1.2, pH 7.4 (NaOH) at room temperature. Micropipettes were pulled of borosilicate glass capillaries (GC150F-10, Harvard Apparatus Ltd, Edenbridge, Kent, UK) with a P-2000 electrode puller (Sutter Instruments, Novato Ca, USA), and fire polished using a micro-forge (MF-830, Narishige, Tokyo, Japan) to give a final resistance of 3-5 MΩ when filled with the pipette solution (composition in mM: NaCl 10, KCl 125, K2ATP 5, HEPES 10, EGTA 5, MgCl2 4, pH set to 7.2 with KOH). Em was measured with a HEKA EPC10 patch clamp amplifier (Dr. Schulze GmbH, Lambrecht, Germany) in the current clamp mode as described by others (Mason, M J, et al., Biophys. J. (2005) 88, 739-750; Perkins, KL, J. Neurosci. Methods (2006) 154, 1-18).\nThe liquid junction potential was calculated with the Clampex 10.0 software (Molecular Devices, Sunnyvale Calif., USA) and an online correction was made for each recording. Both at baseline and during perfusion with 30 μM benzbromarone (BBR, Sigma, St Louis Mo., USA) or 10 μM T16Ainh-A01 (Tocris, Bristol, UK), only those recordings in which (1) the Em was constant for at least 3 minutes, and (2) the seal resistance was constantly high (>5 GΩ) were used for the analyses.\nThe HEK-293 cells were transfected overnight either with the CLCA1 gene containing or with the empty plasmid, using the Effectene transfection reagent kit (Qiagen) and DMEM F-12 complete medium. On the next day, the medium was changed to serum-free SMC Medium. The resulting conditioned media were collected 24 hours later and applied on the PASMC of healthy donors. After 24 hours of incubation, the Em of the PASMC was measured as described above. To confirm the presence of CLCA1 in the conditioned medium, 20 μL of conditioned medium as well as control medium (collected from cells transfected with the empty plasmide) were analyzed with western blot as described above, using a CLCA1 antibody (ab108851, Abcam)."}, "[1]": {"system": "U-46619 preconstricted isolated mouse PA", "assay": "Measurement of pulmonary artery tone ex vivo", "procedure": "Pulmonary artery rings were isolated from male C57BL/6J mice (20-25 weeks old, Charles River, Wilmington Mass., USA), as described by Jain et al. (Jain, P P, et al., Int. J. Nanomedicine (2014) 9, 3249-3261). Following stable contraction (approx. 30 minutes post-addition of U-46619, 30 nM), the arteries were subjected to cumulatively increasing concentrations (0.1 to 30 μM) of the TMEM6A blockers T16Ainh-A01 (Tocris) and benzbromarone (Sigma) in order to analyze the concentration-response relationships."}, "[2]": {"system": "monocrotaline treated rats", "assay": "Monocrotaline treated rats, chronic treatment with slow-release pellets", "assay_type": "in vivo, rat", "procedure": "Male Sprague-Dawley rats (body weight: approx. 250 g, Charles River) received a single subcutaneous injection of monocrotaline (MCT, 60 mg/kg, n=16) or vehicle (control group, n=8). Since significant RVSP increase and PA muscularization had been detected as early as 12 days after the injection of MCT58, two weeks after monocrotaline treatment rats were randomly ordered into two groups. Subcutaneous slow-release pellets (Innovative Research of America) that contained either benzbromarone (MCT+BBR, n=8) or vehicle (MCT+Veh, n=8) were implanted. Four weeks after monocrotaline treatment all rats were subjected to echocardiography and in vivo hemodynamic measurements, thereafter they were sacrificed for organ collection.\nEchocardiographic measurements were performed using a Vevo 770 High Resolution Imaging System with a 30 MHz RMV-707B scan head (VisualSonics, Toronto, Canada) as previously reported (Egemnazarov, B, et al., J. Am. Soc. Echocardiogr. (2015) 28, 828-843). Briefly, animals were mounted on a heated pad and kept under anaesthesia with isoflurane 0.8-1.2%. Chest hair was depilated and a layer of sonographic coupling gel was applied to the thorax. RV internal diameter (RVID) and free wall thickness (RVFW) from the left parasternal long axis view were measured in M-mode and 2-D modalities. RV outflow tract was visualized from the parasternal short axis view at the level of the aortic valve. From this view, pulse wave (PW) Doppler flow recordings of the pulmonary artery were obtained with the sample volume positioned at the tip of the pulmonary valve leaflets. Here, peak velocity, acceleration time (PAAT), and velocity-time integral (VTI) were measured. For every parameter, measurements were done for 4-5 cardiac cycles and results were averaged. Cardiac output was calculated as CO (mL/min)=(7.85×[RV outflow tract]2×pulmonary valve velocity-time integral×heart rate)/1,000. Cardiac index (CI) was obtained by normalizing cardiac output to body weight.\nIn rats, in vivo hemodynamic measurements were conducted as described above for the mice, with the exception that for the right ventricular and the systolic blood pressures, 2 F Millar Catheters (SPR-513 and SPR-320, respectively) were used.\nAt the end of the hemodynamic measurements, animals were exsanguinated and the heart and lungs were isolated. The right ventricle (RV) was dissected from the left ventricle+septum (LV+S) and both of them were weighed. Right ventricular hypertrophy was assessed by calculating the Fulton index, defined as RV weight/(LV+S weight).\nParaffin-embedded mouse and rat lung tissues were cut to 2 μm thin sections. Double immunohistochemical staining and quantification of the non-muscularized and muscularized arteries were made as previously described (Crnkovic, S, et al., Respir. Physiol. Neurobiol. (2011) 179, 342-345). Immunostained slides were scanned with an Olympus BX61VS microscope using the OlyVIA software (Olympus Austria GmbH, Vienna, Austria). Vessel remodeling in lung sections was quantified using semi-automated image analysis software (Visiopharm, Hoersholm, Denmark). Throughout the analysis, all samples were identified with number codes to blind the operator for the experimental group. The percentage of non-muscularized and muscularized pulmonary arteries, relative to the total number of pulmonary arteries, was calculated.\nSerial sections from the same lungs were used to determine cell proliferation in the PA wall, as described by Zabini et al. (Zabini, D. et al., J. Cell. Mol. Med. (2015) 19, 1151-1161). Lung sections were labeled using a primary antibody against the proliferation marker PCNA (sc-7907, Santa Cruz). Immunostained slides were scanned with an Olympus BX61VS microscope equipped with the OlyVIA software (Olympus Austria GmbH, Vienna, Austria). Negative controls were performed with the omission of the primary antibody."}, "[3]": {"assay": "Solubility (comparative remark)", "assay_type": "physicochemical"}, "[4]": {"conditions": "compared to the MCT+Veh group, week 4"}, "[5]": {"conditions": "slow-release pellet from two weeks after MCT, echocardiography at week 4"}},
  "data": [
    {"smiles": "CCc1oc2ccccc2c1C(=O)c1cc(Br)c(O)c(Br)c1", "note": "[benzbromarone, (2-Ethyl-3-benzofuranyl)-(3,5-dibrom-4-hydroxyphenyl)ketone]", "values": [
      {"measurement": "reversal of the Em of IPAH-PASMC to the levels of PASMC isolated from healthy donors", "setting": "PASMC; PASMC of IPAH patients", "result": "completely"},
      {"measurement": "effect on Em of PASMC of donors", "setting": "PASMC; PASMC of healthy donors", "result": "no effect"},
      {"measurement": "vasorelaxation of preconstricted PA", "setting": "[1]; cumulatively increasing concentrations 0.1 to 30 μM, U-46619 30 nM", "result": "dose-dependent vasorelaxation"},
      {"measurement": "potency compared with T16Ainh-A01", "setting": "[1]; ex vivo PA vasodilator response", "result": "more potent"},
      {"measurement": "PCNA positive nuclei in the medial layer of the PA", "setting": "[2]; MCT treated rats, lung sections (not shown)", "result": "reduced number"},
      {"measurement": "number of fully muscularized arteries", "setting": "[2]; MCT+BBR vs MCT+Veh", "result": "markedly reduced"},
      {"measurement": "number of non-muscularized arteries", "setting": "[2]; MCT+BBR vs MCT+Veh", "result": "increased"},
      {"measurement": "RV hypertrophy (Fulton-index)", "setting": "[2]; [4]", "result": "significantly decreased"},
      {"measurement": "RVSP", "setting": "[2]; [4]", "result": "significantly decreased"},
      {"measurement": "MCT-induced decrease in cardiac index (CI)", "setting": "[2]; [5]", "result": "completely reversed"},
      {"measurement": "MCT-induced decrease in pulmonary artery acceleration time (PAAT)", "setting": "[2]; [5]", "result": "completely reversed"},
      {"measurement": "MCT-induced increase in right ventricular free wall thickness (RVFW Thickness)", "setting": "[2]; [5]", "result": "completely reversed"},
      {"measurement": "solubility compared with T16Ainh-A01", "setting": "[3]", "result": "better soluble"}
    ]}
  ]
}
